A short description of data set [1]: Drug metabolism in mouse liver microsomes after 20 mins. The format is ADME, Microsome. As to conditions: read-out: Drug metabolism. (In general: Liver microsomes are vesicles of endoplasmic reticulum, rich in cytochrome P450 enzymes.)
The nature of data set [2]: Drug metabolism in human liver microsomes after 20 mins. The format is ADME, Microsome. The note with it: read-out: Drug metabolism.
The target of data set [3] is 11-beta-hydroxysteroid dehydrogenase 1 (Mus musculus, UniProt P50172). The data set is described as follows: Inhibition of mouse 11beta-HSD1.
Chain of 11-beta-hydroxysteroid dehydrogenase 1 (Mus musculus, UniProt P50172) (P50172 whole entry): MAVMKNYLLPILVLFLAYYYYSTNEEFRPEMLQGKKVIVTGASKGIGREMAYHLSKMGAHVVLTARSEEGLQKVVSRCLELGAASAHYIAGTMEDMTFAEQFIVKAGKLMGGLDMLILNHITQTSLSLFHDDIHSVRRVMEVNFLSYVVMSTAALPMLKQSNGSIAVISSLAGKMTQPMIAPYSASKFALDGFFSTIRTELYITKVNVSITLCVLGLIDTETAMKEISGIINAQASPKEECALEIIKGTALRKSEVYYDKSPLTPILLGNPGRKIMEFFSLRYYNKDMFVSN
Data set [4] addresses 11-beta-hydroxysteroid dehydrogenase 1 (Rattus norvegicus, UniProt P16232). The data set can be described thus: Inhibition of rat 11beta-HSD1.
Data set [5] has as its target 11-beta-hydroxysteroid dehydrogenase 1 (Homo sapiens, UniProt P28845). The data set can be described thus: Inhibition of human 11beta-HSD1.
Data set [6] is described as follows: Chemical stability of the compound under neutral condition. In kind it is physicochemical.
A short description of data set [7]: Metabolic stability in plasma (unknown origin) assessed as compound degradation. The format is ADME, cell-free.
Data set [8] can be described thus: Chemical stability of the compound under acidic condition. In kind it is physicochemical.

Chain of 11-beta-hydroxysteroid dehydrogenase 1 (Homo sapiens, UniProt P28845) (P28845 whole entry): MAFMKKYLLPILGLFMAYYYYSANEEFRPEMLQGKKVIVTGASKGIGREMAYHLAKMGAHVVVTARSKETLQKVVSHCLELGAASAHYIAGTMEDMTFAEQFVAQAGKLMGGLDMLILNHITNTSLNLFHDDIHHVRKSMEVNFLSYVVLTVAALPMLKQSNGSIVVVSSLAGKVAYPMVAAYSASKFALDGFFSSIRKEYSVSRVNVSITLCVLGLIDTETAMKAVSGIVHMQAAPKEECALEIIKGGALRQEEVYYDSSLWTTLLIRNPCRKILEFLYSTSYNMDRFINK
Chain of 11-beta-hydroxysteroid dehydrogenase 1 (Rattus norvegicus, UniProt P16232) (P16232 whole entry): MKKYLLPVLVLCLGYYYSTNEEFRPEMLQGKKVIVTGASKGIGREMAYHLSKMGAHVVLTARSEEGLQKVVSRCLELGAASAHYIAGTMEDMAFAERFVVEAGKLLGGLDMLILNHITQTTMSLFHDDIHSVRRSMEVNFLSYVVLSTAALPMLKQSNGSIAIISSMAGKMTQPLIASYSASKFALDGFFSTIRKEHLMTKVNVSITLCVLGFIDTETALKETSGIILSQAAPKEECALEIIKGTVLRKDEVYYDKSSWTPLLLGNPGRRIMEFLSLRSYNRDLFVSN

Turning to `CC1(C)OC(N[C@@H](CCO)c2ccccc2Cl)=NS(=O)(=O)C1(C)C`, the values for the metabolised at 20 min in data set [1] and in data set [2] were 52% and 25%, respectively. In addition, in data set [3], half-maximal inhibition (IC50) required 26 nM.
Regarding `O=S1(=O)NC(=N[C@@H](CO)c2ccccc2)O[C@H]2CCCC[C@H]21` (mixture of isomers), the IC50 (as a rule, the midpoint of a concentration-inhibition curve) in data set [3] came to 152 nM.
The compound `CC1(C)OC(NC2CCCCC2)=NS(=O)(=O)C12CC2` yielded an IC50 in data set [3] of 1620 nM.
`O=S1(=O)N=C(N[C@@H](CCO)c2ccccc2)O[C@H]2CCCC[C@H]21` (mixture of isomers): the values for the metabolised at 20 min in data set [1] and in data set [2] were 41% and 77%, respectively. Moreover, in data set [3], the IC50 came out at 16 nM.
Consider `O=S1(=O)NC(=NC2CCCCC2)O[C@@H]2CCCC[C@H]21`, for which the IC50 in data set [4] worked out at 1140 nM.
Compound `O=S1(=O)NC(=NCC23CC4CC(CC(C4)C2)C3)O[C@H]2CCCC[C@H]21` (mixture of isomers) gave an IC50 in data set [3] of 76 nM.
`O=S1(=O)NC(=NC23CC4CC(CC(C4)C2)C3)O[C@H]2CCCC[C@H]21`: the metabolised at 20 min in data set [1] was determined as 98%; in data set [2] it was 91%. Besides, the IC50 in data set [3] was found to be 40 nM.
Turning to `NC(=O)C[C@H](NC1=NS(=O)(=O)[C@@H]2CCCC[C@@H]2O1)c1ccccc1` (mixture of isomers), the metabolised at 20 min in data set [1] worked out at 35%; in data set [2], 47%.
Regarding `O=S1(=O)NC(=NC23CC4CC(CC(O)(C4)C2)C3)O[C@H]2CCCC[C@H]21` (mixture of isomers), in data set [3], the IC50 was 400 nM.
Same read-out and setting: next, `CCC1OC(NC2CCCCC2)=NS(=O)(=O)C12CC2` (centres undefined): 2510 nM.
With `CC1(C)CC(NC2=NS(=O)(=O)[C@@H]3CCCC[C@@H]3O2)CC(C)(C)C1` (racemic), the metabolised at 20 min in data set [1] came out at 97%; in data set [2] it was 93%. For the same compound, in data set [3], inhibition was half-maximal at 57 nM (IC50).
For the compound `CN1CC[C@@H]2OC(=NC3CCCCC3)NS(=O)(=O)[C@@H]2C1` (racemic), in data set [5], the IC50 is greater than 2250 nM.
Turning to `C[C@H](NC1=NS(=O)(=O)C(C)(C)C(C)(C)O1)c1ccccc1`, the IC50 in data set [3] came out at 286 nM.
With `CC1(C)OC(N[C@@H](CCO)c2ccccc2)=NS(=O)(=O)C1(C)C`, the figures for the metabolised at 20 min in data set [1] and in data set [2] were 11% and 4%, respectively. This compound also yielded an IC50 in data set [3] of 232 nM.
The matching figures for `O=S1(=O)N=C(NC2CCCCCC2)O[C@H]2CCCC[C@H]21` (racemic): 54%, 45% and 87 nM.
Taken in the same sequence, the figures for `CC1(C)OC(N[C@@H](CCO)c2ccc(F)cc2)=NS(=O)(=O)C1(C)C` were 9%, 2% and 199 nM.
Regarding `O=S1(=O)NC(=NCc2ccccc2)O[C@H]2CCCC[C@H]21`, in data set [3], the IC50 is 786 nM.
On to `CC1(C)CCC(N=C2NS(=O)(=O)[C@@H]3CCCC[C@@H]3O2)CC1` (racemic), for which the metabolised at 20 min in data set [1] and in data set [2] was 55% throughout. Moreover, half-maximal inhibition in data set [3] (IC50) required 455 nM.
For the compound `O=S1(=O)N=C(NC23CCC(O)(CC2)CC3)O[C@H]2CCCC[C@H]21` (mixture of isomers), the metabolised at 20 min in data set [1] amounted to 20%; in data set [2], 12%. Half-maximal inhibition in data set [3] (IC50) required 695 nM.
The compound `O=S1(=O)N=C(NC2CCCCC2)O[C@H]2CCNC[C@H]21` (racemic) came in with an IC50 in data set [5] greater than 2250 nM.
On to `CC1(C)OC(N[C@@H](CCO)c2cccc(C#N)c2)=NS(=O)(=O)C1(C)C`, for which the IC50 in data set [3] worked out at 110 nM.
Turning to `O=S1(=O)NC(=NC23CC4CC(CC2C4)C3)O[C@H]2CCCC[C@H]21` (mixture of isomers), the metabolised at 20 min in data set [1] stood at 65%; in data set [2], 83%. The compound further returned an IC50 in data set [3] of 9 nM.
For the compound `O=S1(=O)N=C(NC2CCCCC2)OC2(CCC2)C12CC2`, in data set [3], the IC50 is 813 nM.
The same measure, in the same setting: next, `CC(C)(NC1=NS(=O)(=O)[C@@H]2CCCC[C@@H]2O1)c1ccccc1` (mixture of isomers): 444 nM.
On to `CC1(C)OC(NC2CCCCC2)=NS(=O)(=O)C1(C)C`, for which the metabolised at 20 min in data set [1] was determined as 9%; in data set [2], 5%. Moreover, inhibition in data set [3] was half-maximal at 865 nM (IC50).
As to `O=S1(=O)N=C(NC2CCCCC2)O[C@H]2CCCC[C@H]21`, the Stability result in data set [6], in data set [7] and in data set [8] was “Stable” in each case. The IC50 in data set [4] stood at 246 nM.
For `CC(C)(O)C[C@H](NC1=NS(=O)(=O)C(C)(C)C(C)(C)O1)c1ccccc1Cl`, in data set [3], the IC50 worked out at 452 nM.
As to `O=S1(=O)N=C(N[C@@H](CCCO)c2ccccc2)O[C@H]2CCCC[C@H]21`, the metabolised at 20 min in data set [1] worked out at 78%; in data set [2] it was 89%. Besides, in data set [3], the 50% inhibitory concentration (IC50) was found to be 294 nM.
On to `C[C@H](NC1=NS(=O)(=O)C(C)(C)C(C)(C)O1)c1ccccc1Cl`, for which the IC50 in data set [3] amounted to 29 nM.
For the compound `O=S1(=O)NC(=NC23CCC(CC2)CC3)O[C@H]2CCCC[C@H]21`, the metabolised at 20 min in data set [1] is 87%; in data set [2], 94%. In addition, in data set [3], the IC50 was 275 nM.
As to `O=S1(=O)N=C(NC23CCCC2CCC3)O[C@H]2CCCC[C@H]21` (mixture of isomers), inhibition in data set [3] was half-maximal at 47 nM (IC50).
`O=S1(=O)NC(=NCC2CCCCC2)O[C@H]2CCCC[C@H]21` (racemic) displayed an IC50 in data set [3] of 729 nM.
Compound `O=S1(=O)N=C(NC23CCC(F)(CC2)CC3)O[C@H]2CCCC[C@H]21` (mixture of isomers) showed an IC50 in data set [3] of 454 nM.
For the compound `O=S1(=O)N=C(NC2CCCCC2)O[C@H]2CCCC[C@H]21` (racemic), the metabolised at 20 min in data set [1] came out at 19%; in data set [2], 18%.
Compound `O=S1(=O)NC(=NC2CCCCC2)O[C@@H]2CCNC[C@H]21` (racemic) came in with an IC50 in data set [5] greater than 2250 nM.
As for `O=S1(=O)N=C(NC2CCCCCCC2)O[C@H]2CCCC[C@H]21` (racemic), the metabolised at 20 min in data set [1] was 84%; in data set [2], 79%. Moreover, it took 31 nM to reach half-maximal inhibition in data set [3] (IC50).

These data come from ChEMBL document CHEMBL2407060, “1,1-Dioxo-5,6-dihydro-[4,1,2]oxathiazines, a novel class of 11ß-HSD1 inhibitors for the treatment of diabetes” (Bioorg Med Chem Lett, 2013).
